According to patent US8759535B2, “Substituted fused imidazole derivatives, pharmaceutical compositions, and methods of use thereof” (High Point Pharmaceuticals, LLC, priority 2010, dated 2014):
Counter-ions that a name gives are not always drawn.

Tested on: HMOX1
Assay: HMOX1 Protein Assay (immunostaining of HO-1 in NHLF cells, GE InCell 1000)
Assay type: cell-based
Details: Homo sapiens, fold change above DMSO treated cells, 3 μM compound (asterisk), 16 h
How it was run: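 NHLF cells seeded overnight in FGM-2, then exposed to compound or DMSO vehicle for 16 h, fixed, and immunostained for HO-1 with Hoechst nuclear counterstain; imaged on InCell 1000. Values are fold change over DMSO-treated cells, generally at 5 μM (0.8% DMSO), with asterisked entries at 3 μM.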

SMILES | fold induction at 3 µM
COC(C)(C)CNC(=O)c1ccc2c(c1)nc(Nc1nc3ccc(Cl)cc3s1)n2C [Example 207, 2-(6-Chloro-benzothiazol-2-ylamino)-1-methyl-1H-benzoimidazole-5-carboxylic acid (2-methoxy-2-methyl-propyl)-amide] | 11.8
Cn1c(Nc2nc3ccc(Cl)cc3s2)nc2cc(C(=O)N[C@H]3CC[C@H](O)CC3)ccc21 [Example 225, 2-(6-Chloro-benzothiazol-2-ylamino)-1-methyl-1H-benzoimidazole-5-carboxylic acid (trans-4-hydroxy-cyclohexyl)-amide] | 17.7
Cn1c(Nc2nc3ccc(C(F)(F)F)cc3s2)nc2cc(C(=O)NCC(=O)N3CCC(O)CC3)ccc21 [Example 437, 1-Methyl-2-(6-trifluoromethyl-benzothiazol-2-ylamino)-1H-benzoimidazole-5-carboxylic acid [2-(4-hydroxy-piperidin-1-yl)-2-oxo-ethyl]-amide] | 47.1
C[C@@H](O)CNC(=O)c1ccc2c(c1)nc(Nc1nc3ccc(C(F)(F)F)cc3s1)n2C [Example 205, 1-Methyl-2-(6-trifluoromethyl-benzothiazol-2-ylamino)-1H-benzoimidazole-5-carboxylic acid ((R)-2-hydroxy-propyl)-amide] | 33.1
COCCOCCNC(=O)c1ccc2c(c1)nc(Nc1nc3ccc(C(F)(F)F)cc3s1)n2C [Example 262, 1-Methyl-2-(6-trifluoromethyl-benzothiazol-2-ylamino)-1H-benzoimidazole-5-carboxylic acid [2-(2-methoxy-ethoxy)-ethyl]-amide] | 40
C[C@@H](O)CNC(=O)c1ccc2c(c1)nc(Nc1nc3ccc(Cl)cc3s1)n2C [Example 203, 2-(6-Chloro-benzothiazol-2-ylamino)-1-methyl-1H-benzoimidazole-5-carboxylic acid ((R)-2-hydroxy-propyl)-amide] | 18.7
C[C@H](CO)OCCNC(=O)c1ccc2c(c1)nc(Nc1nc3ccc(Cl)cc3s1)n2C [Example 243, 2-(6-Chloro-benzothiazol-2-ylamino)-1-methyl-1H-benzoimidazole-5-carboxylic acid [2-((R)-2-hydroxy-1-methyl-ethoxy)-ethyl]-amide] | 15.2
Cn1c(Nc2nc3ccc(Cl)cc3s2)nc2cc(C(=O)NN3CCOCC3)ccc21 [Example 321, 2-(6-Chloro-benzothiazol-2-ylamino)-1-methyl-1H-benzoimidazole-5-carboxylic acid morpholin-4-ylamide] | 15.3
Cn1c(Nc2nc3ccc(OC(F)(F)F)cc3s2)nc2cc(C(=O)NCCCCN)ccc21 [Example 346, 1-Methyl-2-(6-trifluoromethoxy-benzothiazol-2-ylamino)-1H-benzoimidazole-5-carboxylic acid (4-amino-butyl)-amide hydrochloride] | 12.9
CO[C@@H]1CCCN(C(=O)CNC(=O)c2ccc3c(c2)nc(Nc2nc4ccc(C(F)(F)F)cc4s2)n3C)C1 [Example 446, 1-Methyl-2-(6-trifluoromethyl-benzothiazol-2-ylamino)-1H-benzoimidazole-5-carboxylic acid [2-((R)-3-methoxy-piperidin-1-yl)-2-oxo-ethyl]-amide] | 31.3

Same assay, conditions: Homo sapiens, fold change above DMSO treated cells, 5 μM compound, 16 h

SMILES | fold induction at 5 µM
CCn1c(Nc2nc3ccc(OC(F)(F)F)cc3s2)nc2cc(C(=O)NCC(=O)N3CCN(C)CC3)ccc21 [Example 190, 1-Ethyl-2-(6-trifluoromethoxy-benzothiazol-2-ylamino)-1H-benzoimidazole-5-carboxylic acid [2-(4-methyl-piperazin-1-yl)-2-oxo-ethyl]-amide] | 23.4
CCOCCNC(=O)c1ccc2c(c1)nc(Nc1nc3ccc(OC(F)(F)F)cc3s1)n2C [Example 4, 1-Methyl-2-(6-trifluoromethoxy-benzothiazol-2-ylamino)-1H-benzoimidazole-5-carboxylic acid (2-ethoxy-ethyl)-amide] | 11.9
CCNC(=O)c1cnc2c(c1)nc(Nc1nc3ccc(OC(F)(F)F)cc3s1)n2C [Example 76, 3-Methyl-2-(6-trifluoromethoxy-benzothiazol-2-ylamino)-3H-imidazo[4,5-b]pyridine-6-carboxylic acid ethylamide] | 22.5
Cn1c(Nc2nc3ccc(OC(F)(F)F)cc3s2)nc2cc(C(=O)NCCCn3cccn3)ccc21 [Example 11, 1-Methyl-2-(6-trifluoromethoxy-benzothiazol-2-ylamino)-1H-benzoimidazole-5-carboxylic acid (3-pyrazol-1-yl-propyl)-amide] | 25
CCOCCNC(=O)c1ccc2c(c1)nc(Nc1nc3cc(F)c(F)cc3s1)n2C [Example 87, 2-(5,6-Difluoro-benzothiazol-2-ylamino)-1-methyl-1H-benzoimidazole-5-carboxylic acid (2-ethoxy-ethyl)-amide] | 12.1
Cn1c(Nc2nc3ccc(OC(F)(F)F)cc3s2)nc2cc(C(=O)NCC3CN(C(=O)OC(C)(C)C)CCO3)ccc21 (stereo not drawn) [Example 55, 2-({[1-Methyl-2-(6-trifluoromethoxy-benzothiazol-2-ylamino)-1H-benzoimidazole-5-carbonyl]-amino}methyl)-morpholine-4-carboxylic acid tert-butyl ester] | 4.5
Cn1c(Nc2nc3ccc(OC(F)(F)F)cc3s2)nc2cc(C(=O)O)ccc21 [Example 3, 1-Methyl-2-(6-trifluoromethoxy-benzothiazol-2-ylamino)-1H-benzoimidazole-5-carboxylic acid] | 12.5
CNCC1CCCN(C(=O)CNC(=O)c2ccc3c(c2)nc(Nc2nc4ccc(Cl)cc4s2)n3C)C1 (stereo not drawn) [Example 460, 2-(6-Chloro-benzothiazol-2-ylamino)-1-methyl-1H-benzoimidazole-5-carboxylic acid [2-(3-methylaminomethyl-piperidin-1-yl)-2-oxo-ethyl]-amid hydrochloride] | 27.5
COCCCNC(=O)c1ccc2c(c1)nc(Nc1nc3ccc(OC(F)(F)F)cc3s1)n2C [Example 19, 1-Methyl-2-(6-trifluoromethoxy-benzothiazol-2-ylamino)-1H-benzoimidazole-5-carboxylic acid (3-methoxy-propyl)-amide] | 21.1
Cn1c(Nc2nc3ccc(Cl)cc3s2)nc2cc(C(=O)NC3CCN(CCC(=O)O)C3)ccc21 (stereo not drawn) [Example 299, 3-(3-{[2-(6-Chloro-benzothiazol-2-ylamino)-1-methyl-1H-benzoimidazole-5-carbonyl]-amino}-pyrrolidin-1-yl)-propionic acid] | 16.7
Cn1c(Nc2nc3ccc(OC(F)(F)F)cc3s2)nc2cc(C(=O)NCC(=O)O)ccc21 [Example 83, {[1-Methyl-2-(6-trifluoromethoxy-benzothiazol-2-ylamino)-1H-benzoimidazole-5-carbonyl]-amino}-acetic acid] | 1.25
COCCNC(=O)c1cnc2c(c1)nc(Nc1nc3ccc(OC(F)(F)F)cc3s1)n2C [Example 73, 3-Methyl-2-(6-trifluoromethoxy-benzothiazol-2-ylamino)-3H-imidazo[4,5-b]pyridine-6-carboxylic acid (2-methoxy-ethyl)-amide] | 20.6
COC(=O)[C@H](C)NC(=O)c1ccc2c(c1)nc(Nc1nc3ccc(OC(F)(F)F)cc3s1)n2C [Example 143, (S)-2-{[1-Methyl-2-(6-trifluoromethoxy-benzothiazol-2-ylamino)-1H-benzoimidazole-5-carbonyl]-amino}-propionic acid methyl ester] | 22.4
CN(C)C1CCN(C(=O)CNC(=O)c2ccc3c(c2)nc(Nc2nc4ccc(OC(F)(F)F)cc4s2)n3C)CC1 [Example 455, 1-Methyl-2-(6-trifluoromethoxy-benzothiazol-2-ylamino)-1H-benzoimidazole-5-carboxylic acid [2-(4-dimethylamino-piperidin-1-yl)-2-oxo-ethyl]-amide] | 80.4
Cn1c(Nc2nc3ccc(OC(F)(F)F)cc3s2)nc2cc(C(=O)NCCCO)ccc21 [Example 13, 1-Methyl-2-(6-trifluoromethoxy-benzothiazol-2-ylamino)-1H-benzoimidazole-5-carboxylic acid (3-hydroxy-propyl)-amide] | 20.1
Cn1c(Nc2nc3ccc(OC(F)(F)F)cc3s2)nc2cc(C(=O)N(CCO)CCO)ccc21 [Example 284, 1-Methyl-2-(6-trifluoromethoxy-benzothiazol-2-ylamino)-1H-benzoimidazole-5-carboxylic acid bis-(2-hydroxy-ethyl)-amide] | 47.4
CNC(=O)CNC(=O)c1ccc2c(c1)nc(Nc1nc3ccc(OC(F)(F)F)cc3s1)n2C [Example 139, 1-Methyl-2-(6-trifluoromethoxy-benzothiazol-2-ylamino)-1H-benzimidazole-5-carboxylic acid methylcarbamoylmethyl-amide] | 18.8
Cn1c(Nc2nc3ccc(OC(F)(F)F)cc3s2)nc2cc(C(=O)NC3CCS(=O)(=O)C3)ccc21 (stereo not drawn) [Example 121, 1-Methyl-2-(6-trifluoromethoxy-benzothiazol-2-ylamino)-1H-benzimidazole-5-carboxylic acid (1,1-dioxo-tetrahydro-1λ^6-thiophen-3-yl)-amide] | 29.6
Cn1c(Nc2nc3ccc(OC(F)(F)F)cc3s2)nc2ccc(CC(N)=O)cc21 [Example 202, 2-[1-Methyl-2-(6-trifluoromethoxy-benzothiazol-2-ylamino)-1H-benzoimidazol-6-yl]-acetamide] | 15.6
Cn1c(Nc2nc3ccc(OC(F)(F)F)cc3s2)nc2cc(C(=O)NCCOCCO)ccc21 [Example 46, 1-Methyl-2-(6-trifluoromethoxy-benzothiazol-2-ylamino)-1H-benzoimidazole-5-carboxylic acid [2-(2-hydroxy-ethoxy)-ethyl]-amide] | 17.9
